Test results reported in patent publication US20230322767A1, “ARYL SUBSTITUTED PYRROLO-PYRIDINONES AND THERAPEUTIC USES THEREOF” (Bayer Aktiengesellschaft, priority 2020, published 2023).

What was measured:
CSNK1D = CSNK1D (Homo sapiens (Human), UniProt P48730); test: CSNK1D Assay (ADP-Glo, 1 μM ATP); type: biochemical; conditions: median, read-out: CSNK1D IC50 [mol/l] (median)
Procedure: CSNK1D-inhibitory activity of compounds of the present invention in presence of 1 μM adenosine-tri-phosphate (ATP) was quantified employing the CSNK1 D assay as described in the following paragraphs. In essence, the enzyme activity is measured by quantification of the adenosine-di-phosphate (ADP), which is generated as a co-product of the enzyme reaction, via the “ADP-Glo™ Kinase Assay” kit from the company Promega. This detection system works as follows: In a first step the ATP not consumed in the kinase reaction is quantitatively converted to cAMP employing an adenylate cyclase (“ADP-Glo-reagent”), then the adenylate cyclase is stopped and the ADP generated in the kinase reaction converted to ATP which generates in a luciferase-based reaction a glow-luminescence signal (“Kinase Detection Reagent”).
As substrate for the kinase reaction the biotinylated peptide Btn-Ahx-[…] (C-terminus in amide form) was used which can be purchased e.g. from the company Biosyntan (Berlin-Buch, Germany).
For the assay 50 nl of a 100 fold concentrated solution of the test compound in DMSO was pipetted into a white 1536-well microtiter plate (Greiner Bio-One, Frickenhausen, Germany), 2 μL of a solution of CSNK1D in aqueous assay buffer [50 mM HEPES pH 7.5, 10% (v/v) glycerol, 10 mM MgCl2, 50 mM NaCl, 1 mM dithiothreitol, 0.01% (w/v) bovine serum albumin, 0.01% (v/v) Triton X-100] were added and the mixture was incubated for 15 min at 22° C. to allow pre-binding of the test compounds to the enzyme before the start of the kinase reaction. […] The concentration of CSNK1D was adjusted depending of the activity of the enzyme lot and was chosen appropriate to have the assay in the linear range, a typical concentration is about 0.5 ng/μL. The reaction was stopped by the addition of 2.5 μL of “ADP-Glo-reagent” (1:1.5 fold diluted with water) and the resulting mixture was incubated at 22° C. for 1 h to convert the ATP not consumed in the kinase reaction completely […]. Subsequently 2.5 μL of the “kinase detection reagent” (1.2 fold more concentrated than recommended by the producer) were added, the resulting mixture was incubated at 22° C. for 1 h and then the luminescence measured with a suitable measurement instrument (e.g. Viewlux™ from Perkin-Elmer). The amount of emitted light was taken as a measure for the amount of ADP generated and thereby for the activity of the CSNK1D.

CSNK1A1 = CSNK1A1 (Homo sapiens (Human), UniProt P48729); test: CSNK1A1 Assay 2 (ADP-Glo, 1 μM ATP); type: biochemical; conditions: median, read-out: CSNK1A1 Assay 2 IC50 [mol/l] (median)
Procedure: CSNK1A1-inhibitory activity of compounds of the present invention in presence of 1 μM adenosine-tri-phosphate (ATP) was quantified employing the CSNK1A1 assay as described in the following paragraphs. In essence, the enzyme activity is measured by quantification of the adenosine-di-phosphate (ADP), which is generated as a co-product of the enzyme reaction, via the “ADP-Glo™ Kinase Assay” kit from the company Promega. This detection system works as follows: In a first step the ATP not consumed in the kinase reaction is quantitatively converted to cAMP employing an adenylate cyclase (“ADP-Glo-reagent”), then the adenylate cyclase is stopped and the ADP generated in the kinase reaction converted to ATP which generates in a luciferase-based reaction a glow-luminescence signal (“Kinase Detection Reagent”).
As substrate for the kinase reaction the biotinylated peptide biotin-Ahx-KRRRAL-pS-VASLPGL (C-terminus in amide form) was used which can be purchased e.g. from the company Biosyntan (Berlin-Buch, Germany).
For the assay 50 nl of a 100 fold concentrated solution of the test compound in DMSO was pipetted into a white 1536-well microtiter plate (Greiner Bio-One, Frickenhausen, Germany), 2 μL of a solution of CSNK1A1 in aqueous assay buffer [50 mM HEPES pH 7.5, 10% (v/v) glycerol, 10 mM MgCl2, 50 mM NaCl, 1 mM dithiothreitol, 0.01% (w/v) bovine serum albumin, 0.01% (v/v) Triton X-100] were added and the mixture was incubated for 15 min at 22° C. to allow pre-binding of the test compounds to the enzyme before the start of the kinase reaction. […] The concentration of CSNK1A1 was adjusted depending of the activity of the enzyme lot and was chosen appropriate to have the assay in the linear range, a typical concentrations are about 0.0375 ng/μL. The reaction was stopped by the addition of 2.5 μL of “ADP-Glo-reagent” (1:1.5 fold diluted with water) and the resulting mixture was incubated at 22° C. for 1 h to convert the ATP not consumed in the kinase reaction completely […]. Subsequently 2.5 μL of the “kinase detection reagent” (1.2 fold more concentrated than recommended by the producer) were added, the resulting mixture was incubated at 22° C. for 1 h and then the luminescence measured with a suitable measurement instrument (e.g. Viewlux™ from Perkin-Elmer). The amount of emitted light was taken as a measure for the amount of ADP generated and thereby for the activity of the CSNK1A1.

CSNK1A1, sequence (P48729 whole entry): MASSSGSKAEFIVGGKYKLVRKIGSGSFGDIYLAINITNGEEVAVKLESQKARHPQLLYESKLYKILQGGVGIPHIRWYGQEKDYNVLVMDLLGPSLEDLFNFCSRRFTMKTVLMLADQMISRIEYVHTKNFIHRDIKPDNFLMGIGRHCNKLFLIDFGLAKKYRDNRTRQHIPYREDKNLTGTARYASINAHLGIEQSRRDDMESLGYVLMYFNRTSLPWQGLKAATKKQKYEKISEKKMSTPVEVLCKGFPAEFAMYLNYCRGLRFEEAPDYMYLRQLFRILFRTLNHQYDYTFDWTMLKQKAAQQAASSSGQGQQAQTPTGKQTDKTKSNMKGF
CSNK1D, sequence (P48730 whole entry): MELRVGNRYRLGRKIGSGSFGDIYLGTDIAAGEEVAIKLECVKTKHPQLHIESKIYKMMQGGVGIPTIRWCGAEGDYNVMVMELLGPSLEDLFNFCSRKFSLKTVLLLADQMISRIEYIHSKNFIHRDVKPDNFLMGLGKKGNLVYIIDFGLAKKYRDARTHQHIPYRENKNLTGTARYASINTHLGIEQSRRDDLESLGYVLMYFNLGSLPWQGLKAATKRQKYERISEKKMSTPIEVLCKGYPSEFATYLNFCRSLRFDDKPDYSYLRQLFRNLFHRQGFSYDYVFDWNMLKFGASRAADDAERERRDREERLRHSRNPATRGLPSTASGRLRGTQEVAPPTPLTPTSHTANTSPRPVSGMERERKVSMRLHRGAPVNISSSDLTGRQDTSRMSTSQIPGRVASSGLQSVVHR

Row | SMILES | IC50 (CSNK1D) | IC50 (CSNK1A1)
1 | CN1CCc2[nH]c(-c3ccnc(NC(=O)C(CC(F)F)c4ccc(F)cc4)c3)c(-c3ccccc3)c2C1=O (racemic) [Example 2, 4,4-difluoro-2-(4-fluorophenyl)-N-[4-(5-methyl-4-oxo-3-phenyl-4,5,6,7-tetrahydro-1H-pyrrolo[3,2-c]pyridin-2-yl)pyridin-2-yl]butanamide] | 3.3 nM | 1.7 nM
2 | CN1CCc2[nH]c(-c3ccnc(NC(=O)C(CC(F)F)c4ccc(F)cc4)c3)c(-c3cccnc3)c2C1=O (racemic) [Example 9, 4,4-difluoro-2-(4-fluorophenyl)-N-{4-[5-methyl-4-oxo-3-(pyridin-3-yl)-4,5,6,7-tetrahydro-1H-pyrrolo[3,2-c]pyridin-2-yl]pyridin-2-yl}butanamide] | 9.2 nM | 7.8 nM
3 | CC(C(=O)Nc1cc(-c2[nH]c3c(CC(F)(F)F)cn(C)c(=O)c3c2-c2ccccc2)ccn1)c1ccc(F)cc1 (racemic) [Example 14, 2-(4-fluorophenyl)-N-{4-[5-methyl-4-oxo-3-phenyl-7-(2,2,2-trifluoroethyl)-4,5-dihydro-1H-pyrrolo[3,2-c]pyridin-2-yl]pyridin-2-yl}propanamide] | 2.7 nM | 4.7 nM
4 | Cn1cc(CC(F)(F)F)c2[nH]c(-c3ccnc(NC(=O)C(CC(F)F)c4ccc(F)cc4)c3)c(-c3ccccc3)c2c1=O (racemic) [Example 18, 4,4-difluoro-2-(4-fluorophenyl)-N-{4-[5-methyl-4-oxo-3-phenyl-7-(2,2,2-trifluoroethyl)-4,5-dihydro-1H-pyrrolo[3,2-c]pyridin-2-yl]pyridin-2-yl}butanamide] | 3.1 nM | 5.9 nM
5 | CC(C(=O)Nc1cc(-c2[nH]c3c(CC(F)(F)F)cn(C)c(=O)c3c2-c2ccc(F)cc2)ccn1)c1ccc(F)cc1 (racemic) [Example 22, 2-(4-fluorophenyl)-N-{4-[3-(4-fluorophenyl)-5-methyl-4-oxo-7-(2,2,2-trifluoroethyl)-4,5-dihydro-1H-pyrrolo[3,2-c]pyridin-2-yl]pyridin-2-yl}propanamide] | 3.2 nM | 6.2 nM
6 | Cn1cc(CC(F)(F)F)c2[nH]c(-c3ccnc(NC(=O)C(CC(F)F)c4ccc(F)cc4)c3)c(-c3ccc(F)cc3)c2c1=O (racemic) [Example 26, 4,4-difluoro-2-(4-fluorophenyl)-N-{4-[3-(4-fluorophenyl)-5-methyl-4-oxo-7-(2,2,2-trifluoroethyl)-4,5-dihydro-1H-pyrrolo[3,2-c]pyridin-2-yl]pyridin-2-yl}butanamide] | 7.1 nM | 11 nM
7 | Cc1cn(C)c(=O)c2c(-c3ccc(F)cc3)c(-c3ccnc(NC(=O)C(C)c4ccc(F)cc4)c3)[nH]c12 (racemic) [Example 30, 2-(4-fluorophenyl)-N-{4-[3-(4-fluorophenyl)-5,7-dimethyl-4-oxo-4,5-dihydro-1H-pyrrolo[3,2-c]pyridin-2-yl]pyridin-2-yl}propanamide] | 3.8 nM | 5.7 nM
8 | Cc1cn(C)c(=O)c2c(-c3ccc(F)cc3)c(-c3ccnc(NC(=O)C(CC(F)F)c4ccc(F)cc4)c3)[nH]c12 (racemic) [Example 34, 4,4-difluoro-2-(4-fluorophenyl)-N-{4-[3-(4-fluorophenyl)-5,7-dimethyl-4-oxo-4,5-dihydro-1H-pyrrolo[3,2-c]pyridin-2-yl]pyridin-2-yl}butanamide] | 5.3 nM | 5.8 nM
9 | Cc1cn(C)c(=O)c2c(-c3ccccc3)c(-c3ccnc(NC(=O)C(C)c4ccc(F)cc4)c3)[nH]c12 (racemic) [Example 38, N-[4-(5,7-dimethyl-4-oxo-3-phenyl-4,5-dihydro-1H-pyrrolo[3,2-c]pyridin-2-yl)pyridin-2-yl]-2-(4-fluorophenyl)propanamide] | 7.1 nM | 7.8 nM
10 | Cc1cn(C)c(=O)c2c(-c3ccccc3)c(-c3ccnc(NC(=O)C(CC(F)F)c4ccc(F)cc4)c3)[nH]c12 (racemic) [Example 40, N-[4-(5,7-dimethyl-4-oxo-3-phenyl-4,5-dihydro-1H-pyrrolo[3,2-c]pyridin-2-yl)pyridin-2-yl]-4,4-difluoro-2-(4-fluorophenyl)butanamide] | 4 nM | 4 nM
11 | CC1(C)CNC(=O)c2c1[nH]c(-c1ccnc(NC(=O)C(CC(F)F)c3ccc(F)cc3)c1)c2-c1ccccc1 (racemic) [Example 43, N-[4-(7,7-dimethyl-4-oxo-3-phenyl-4,5,6,7-tetrahydro-1H-pyrrolo[3,2-c]pyridin-2-yl)pyridin-2-yl]-4,4-difluoro-2-(4-fluorophenyl)butanamide] | 2.7 nM | 2.6 nM
12 | CC(C(=O)Nc1cc(-c2[nH]c3c(c2-c2ccccc2)C(=O)NCC3(C)C)ccn1)c1ccc(F)cc1 (racemic) [Example 46, N-[4-(7,7-dimethyl-4-oxo-3-phenyl-4,5,6,7-tetrahydro-1H-pyrrolo[3,2-c]pyridin-2-yl)pyridin-2-yl]-2-(4-fluorophenyl)propanamide] | 3.3 nM | 2.7 nM
13 | CN1C(=O)c2c([nH]c(-c3ccnc(NC(=O)C(CC(F)F)c4ccc(F)cc4)c3)c2-c2ccccc2)CC12CCC2 (racemic) [Example 49, 4,4-difluoro-2-(4-fluorophenyl)-N-[4-(5′-methyl-4′-oxo-3′-phenyl-1′,4′,5′,7′-tetrahydrospiro[cyclobutane-1,6′-pyrrolo[3,2-c]pyridin]-2′-yl)pyridin-2-yl]butanamide] | 4.5 nM | 4.6 nM
14 | CC(C(=O)Nc1cc(-c2[nH]c3c(c2-c2ccccc2)C(=O)N(C)C2(CCC2)C3)ccn1)c1ccc(F)cc1 (racemic) [Example 52, 2-(4-fluorophenyl)-N-[4-(5′-methyl-4′-oxo-3′-phenyl-1′,4′,5′,7′-tetrahydrospiro[cyclobutane-1,6′-pyrrolo[3,2-c]pyridin]-2′-yl)pyridin-2-yl]propanamide] | 3.8 nM | 3.4 nM
15 | CN1CC(CC2CC2)c2[nH]c(-c3ccnc(NC(=O)Cc4ccc(F)cc4)c3)c(-c3ccccc3)c2C1=O (racemic) [Example 55, N-{4-[7-(cyclopropylmethyl)-5-methyl-4-oxo-3-phenyl-4,5,6,7-tetrahydro-1H-pyrrolo[3,2-c]pyridin-2-yl]pyridin-2-yl}-2-(4-fluorophenyl)acetamide] | 2.2 nM | 2 nM
16 | CC(C(=O)Nc1cc(-c2[nH]c3c(CC4CC4)cn(C)c(=O)c3c2-c2ccccc2)ccn1)c1ccc(F)cc1 (racemic) [Example 58, N-{4-[7-(cyclopropylmethyl)-5-methyl-4-oxo-3-phenyl-4,5-dihydro-1H-pyrrolo[3,2-c]pyridin-2-yl]pyridin-2-yl}-2-(4-fluorophenyl)propanamide] | 4 nM | 5.2 nM
